Measured values: patent US8309726B2, “Substituted piperazine compounds of formula 8” (Council of Scientific & Industrial Research, priority 2007, dated 2012)

Test system: calf thymus (CT) DNA
Assay: Thermal denaturation studies with duplex-form calf thymus DNA
Assay type: binding
Conditions: for ΔTm (° C.) after incubation at 37° C. for 0 h / ΔTm (° C.) after incubation at 37° C. for 18 h / ΔTm (° C.) after incubation at 37° C. for 36 h: [ANCD]/[DNA] molar ratio 1:5, CT-DNA 100 μM, ligand 20 μM, sodium phosphate buffer pH 7.00; for ΔTm (° C.) after incubation at 37° C. for 0 h: 0 h at 37° C.; for ΔTm (° C.) after incubation at 37° C. for 18 h: 18 h at 37° C.; for ΔTm (° C.) after incubation at 37° C. for 36 h: 36 h at 37° C.; for Course of ΔTm over incubation at 0 hr, 18 hr and 36 hr: incubation at 37° C., [ANCD]/[DNA] 1:5
Description: Compounds were subjected to thermal denaturation studies with duplex-form calf thymus DNA (CT-DNA) using an adaptation of a reported procedure. Working solutions in aqueous buffer (10 mM NaH2PO4/Na2HPO4, 1 mM Na2EDTA, pH 7.00+/−0.01) containing CT-DNA (100 μM in phosphate) and the PBD (20 μM) were prepared by addition of concentrated ANCD solutions in DMSO to obtain a fixed [ANCD]/[DNA] molar ratio of 1:5. The DNA-ANCD solutions were incubated at 37° C. for 0, 18, and 36 h prior to analysis. Samples were monitored at 260 nm using a Beckman DU-7400 spectrophotometer fitted with high performance temperature controller, and heating was applied at 1° C. min^−1 in the 40-90° C. range. DNA helix coil transition temperatures (Tm) were obtained from the maxima in the (dA260)/dT derivative plots. Results are given as the mean+/−standard deviation from three determinations and are corrected for the effects of DMSO co-solvent using a linear correction term. Drug-induced alterations in DNA melting behaviour are given by: ΔTm=Tm (DNA+ANCD)−Tm (DNA alone), where the Tm value for the ANCD-free CT-DNA is 69.0+/−0.01.

| Molecule | ΔTm (° C.) after incubation at 37° C. for 0 h [°C] | ΔTm (° C.) after incubation at 37° C. for 18 h [°C] | ΔTm (° C.) after incubation at 37° C. for 36 h [°C] | Course of ΔTm over incubation at 0 hr, 18 hr and 36 hr |
| --- | --- | --- | --- | --- |
| COc1cc(C(=O)N2CCN(c3ccccc3OC)CC2)c(NC(=O)c2cnccn2)cc1OCc1ccccc1 [Compound 8f, (4-(Benzyloxy)-5-methoxy-2-(pyrazine-2-carbamido)phenyl)(4-(2-methoxyphenyl)piperazin-1-yl)methanone] | 1.3 | 2.1 | 3.0 | gradually increased |
| COc1cc(C(=O)Nc2ccc(S(=O)(=O)c3ccc(NC(=O)c4cc(OC)c(OCc5ccccc5)cc4N)cc3)cc2)c(N)cc1OCc1ccccc1 [Compound 8h, N1-4-[(4-[2-amino-4-(benzyloxy)-5-methoxybenzoyl]aminophenyl)sulfonyl]phenyl-2-amino-4-(benzyloxy)-5-methoxybenzamide] | 1.5 | 2.3 | 2.4 | gradually increased |
| COc1cc(C(=O)N2CCN(c3ccccc3OC)CC2)c(N)cc1OCCCN1CCN(c2ccccc2OC)CC1 [Compound 11, (2-amino-5-methoxy-4-3-[4-(2-methoxyphenyl)piperazino]propoxyphenyl)[4-(2-methoxyphenyl)piperazino]methanone] | 1.4 | 2.1 | 2.1 | gradually increased |
| COc1cc2c(cc1O)N=CC1CCCN1C2=O (stereo not drawn) [DC-81, reference compound] | 0.3 | 0.7 | – | – |
| {2-amino-5-(methyloxy)-4[(phenylmethyl)oxy]phenyl}[4-({2-amino-5-(methyloxy)-4-[(phenylmethyl)oxy]phenyl}carbonyl)hexahydro-1-piperazinyl]methanone [Compound 8g] | 1.6 | 2.6 | 2.9 | gradually increased |
